Here are results for 33 compounds from patent US20030087830A1, “Low molecular weight components of cartilage, complexes of metals with amino acids, DI-peptides and analogs thereof; processes for preparation and therapeutic uses thereof” (priority 2001, published 2003).

The test system of series [1] is Endothelial cells (HUVEC, BAEC). In words: Endothelial cell proliferation. Type of series: cell-based, human / bovine. The note with it: for EC50: 48 hours, copper equivalent, NA = less than 50% at 1.25 mM copper equivalent, read-out: EC proliferation (EC50 mM). The method, then: Endothelial and tumor cell proliferation assays were performed to determine the ability of test samples to inhibit endothelial cell proliferation (antiangiogenic activity), normal cell proliferation,and tumor cell proliferation.
Endothelial cells (Human umbilical vein endothelial cells (HUVEC), bovine aortic endothelial cells (BAEC)), skeletal muscle cells, human dermal fibroblasts (all from Clonetics, Walkersville, Md.) were respectively maintained in EBM-2, MDEM, SKGM and FGFM-2 complete media according to manufacturer's instructions. Tumor rat glioblastoma cell line (C6) was maintained in DMEM (Sigma, Oaksville, Ontario) supplemented with 10% fetal calf serum (FCS) and antibiotics in 5% CO2. Briefly, cells seeded in 96-well sterile tissue culture dishes were treated with increasing concentrations of different test samples for a period of 48 hours at 37° C. Cell number was then evaluated by a calorimetric assay using the cell proliferation reagent tetrazolium salt and the fluorimetric assay using DNA dye (Hoescht) according to the procedure established by the manufacturer (Boehringer Mannhein). The conversion of these tetrazolium salts into formazan occurs only in metabolically active cells. The percentage of cell inhibition was determined by comparison to untreated cells.
(§1) According to the endothelial cell proliferation assay, the relative effectiveness of two compounds is compared by reference to the EC50 thereof. The EC50 is the concentration of compound at which the number of endothelial cells is reduced by 50% as compared to control. The efficacy of the test samples in EVT is established by the percent of eggs with altered angiogenesis at a given inhibitor dose of 0.6 mg of copper equivalent (see FIG. 6 for examples). A comparison of the antiangiogenic activity of the compounds of the present invention with divalent metal salts (CuCl2, MgCl2, ZnCl2, CoCl2) and uncoupled alpha-amino acids, alpha-imino acids, dipeptides, and nitrogenated molecules comprising a carboxylic acid group, such as creatine, is provided to illustrate that the formation of the amino acid-copper complex gives rise to complexes having antiangiogenic activity.

Series [2] relates to blood vessel formation in the vitelline membrane of chick embryo. In words: Embryonic Vascularization Test (EVT). The note with it: for EVT (% of inhibition): activity at 0.6 mg equivalent Copper; for EVT activity (in words): in vivo. The class given is in vivo. Here is the method:
The Embryonic Vascularization Test (EVT) was performed to determine the ability of test samples to inhibit the formation of new blood vessels (antiangiogenic activity).
The normal development of a chick embryo involves the formation of an external vascular system located in the vitelline membrane which carries nutrients from the vitellus (yolk) to the developing embryo. When placed onto the vitelline membrane, antiangiogenic substances can inhibit the blood vessel formation that occurs in the vitelline membrane. Briefly, methylcellulose discs (an inert solid and transparent matrix) containing different test samples were placed on the external border of the vascular perimeter of the vitelline membrane, where the angiogenic process occurs. Vascularization was assessed 24 hours after disc deposition, and results were expressed as the percent of embryos in which blood vessel formation was affected. The blood vessel formation was considered affected when its growing path was either deviated, or diminished or when there was no growth observed beyond the disc as compared to the negative control. The results are expressed as 0, +, and ++ where 0 is for a lower response than 25 percent of the eggs; + is for a response between 25 and 50 percent; and ++ is for an antiangiogenic response observed in more than 50 percent of the eggs.
as §1

The nature of series [3]: Affinity of the amino acid with copper. The class given is physicochemical.
In a further series the test system is Endothelial cells. Kind of series: Endothelial cell tubule formation assay (tubulogenesis). Type of series: cell-based. Set-up: key to Tubulogenesis: 0: Numerous capillary-like tube forming pentagonal network; +: Decrease of capillary-like tubes; ++: Dramatic decrease of capillary-like tubes; +++: Absence of capillary-like tubes. As to conditions: 2.5 mM free (not complexed) ligand. The method, then: The endothelial cell tubule formation assay is a semi-quantitative assay that was performed to determine the ability of test samples to inhibit this multi-step process, which involves cell adhesion, migration, differentiation and growth, using a commercial kit (Chemicon). Briefly, endothelial cells were seeded on solid gel of Ecmatrix™ (Chemicon), basement proteins prepared from the Engelbreth Holm-Swarm (EHS) mouse tumor in microplate in a E-99 media (Sigma) supplemented with 5% FBS and VEGF (50 ng/ml) in the presence or absence of the test sample. Cells were incubated for a period of 24 hours at 37° C. Pictures were taken on the entire tissue culture dish using a binocular microscope for further evaluation.

Series [4] deals with bFGF-stimulated blood vessel formation in Matrigel. Kind of series: Matrigel in vivo angiogenesis assay. Also noted: species or system C57B1/6 mice. As to conditions: intra-peritoneal daily 10 days. The method, then:
The Matrigel™ in vivo assay was performed to determine the ability of test samples to inhibit blood vessel formation (antiangiogenic activity) and to establish their bioavailability in vivo.
Briefly, liquid Matrigel™ (Becton Dickinson, Bedford, Mass.) was maintained at 4° C. and mixed thoroughly for at least 3 hours with 1,500 ng/ml basic fibroblast growth factor (bFGF) (R&D Systems, Minneapolis, Minn.) used as the primary angiogenic stimulus. The mixture (0.5 ml) was injected subcutaneously into the ventral midline of C57B1/6 mice, and treatment with different test samples or saline solution was initiated the same day. Additional animals were also injected with Matrigel™ containing no bFGF to serve as baseline controls. The animals were treated daily for a 10 day period (intra-peritonealy, 0.2 ml of each dose). At day 11, animals were injected with FITC-dextran 20 min prior to euthanizing treated mice. Matrigel™ gels were removed along with underlying peritoneum and prepared for FITC-dextran detection by fluorimetry. The concentration of FITC-dextran in the gels was calculated from a known concentration of FITC-dextran using a standard curve. The FITC-dextran content of the gels from compound-treated animals and controls was expressed as a percent of the positive bFGF-treated controls after the baseline control of FITC-dextran levels were subtracted from all groups.

On to `[Cl-].[Cl-].[Co+2]` [Co++, reference compound], for which the EC50 in series [1] amounted to 0.27 mM.

As for `NCC(=O)[O-].NCC(=O)[O-].[Cu+2]` [Compound 1, Gly:Cu:GIy], the “EVT (% of inhibition)” value in series [2] was “++ (++ more than 50% of inhibition)”. For the same compound, the EC50 in series [1] amounted to 0.27 mM. In addition, in series [3], the “Affinity of the AA with Cooper” value stood at 16.0.

With `C[C@H](N)C(=O)[O-].C[C@H](N)C(=O)[O-].[Cu+2]` [Compound 2, L-Ala:Cu:L-Ala], the “EVT (% of inhibition)” value in series [2] was “++ (++ more than 50% of inhibition)”. Also, the EC50 in series [1] was 0.28 mM. For the same compound, the “Affinity of the AA with Cooper” value in series [3] came out at 15.9. Turning to `N[C@@H](CO)C(=O)[O-].N[C@@H](CO)C(=O)[O-].[Cu+2]` [Compound 3, L-Ser:Cu:L-Ser], in series [2], the “EVT (% of inhibition)” value is 0 (0 non-active (less than 25% of inhibition)) and the “EVT activity (in words)” value was “inactive”. Moreover, in series [1], the EC50 is 0.34 mM. Further, in series [3], the “Affinity of the AA with Cooper” value worked out at 15.4. For `CC(C)C(N)C(=O)[O-].CC(C)C(N)C(=O)[O-].[Cu+2]` [Compound 4, L-Val:Cu:L-Val], the “EVT (% of inhibition)” value in series [2] is listed as “+ (+ between 25-50% of inhibition)”. Moreover, in series [1], the EC50 is 0.35 mM. Moreover, the “Affinity of the AA with Cooper” value in series [3] came to 15.2. Taken in the same sequence, the figures for `N=C(N)NCCC[C@H](N)C(=O)[O-].N=C(N)NCCC[C@H](N)C(=O)[O-].[Cu+2]` [Compound 8, L-Arg:Cu:L-Arg] were “+ (+ between 25-50% of inhibition)”, 0.32 mM and 14.9. Taken in the same sequence, the figures for `NCCCC[C@H](N)C(=O)[O-].NCCCC[C@H](N)C(=O)[O-].[Cu+2]` [Compound 9, L-Lys:Cu:L-Lys] were “++ (++ more than 50% of inhibition)”, 0.35 mM and 14.4. Take `NC(=O)CC[C@H](N)C(=O)[O-].NC(=O)CC[C@H](N)C(=O)[O-].[Cu+2]` [Compound 11, L-Gln:Cu:L-Gln]: the “EVT (% of inhibition)” value in series [2] is reported as 0 (0 non-active (less than 25% of inhibition)). For the same compound, the EC50 in series [1] came out at 0.76 mM. For the same compound, the “Affinity of the AA with Cooper” value in series [3] was 15.5.

On to `CC[C@H](C)[C@H](N)C(=O)[O-].CC[C@H](C)[C@H](N)C(=O)[O-].[Cu+2]` [Compound 12, L-Ile:Cu:L-IIe], for which, in series [1], the EC50 amounted to 0.48 mM. The “Affinity of the AA with Cooper” value in series [3] was determined as 16.6.

As to `CC(N)C(=O)[O-].CC(N)C(=O)[O-].[Cu+2]` [Compound 13, D-Ala:Cu:D-Ala], in series [1], the “Endothelial cell proliferation activity (in words)” value is on record as “active” and the EC50 was 0.44 mM. Consider `CC(O)C(N)C(=O)[O-].CC(O)C(N)C(=O)[O-].[Cu+2]` [Compound 16, D-Thr:Cu:D-Thr], for which, in series [2], the “EVT activity (in words)” value was “active”. In series [1], the “Endothelial cell proliferation activity (in words)” value is listed as “active” and the EC50 was 0.3 mM. With `N[C@H](Cc1c[nH]cn1)C(=O)[O-].N[C@H](Cc1c[nH]cn1)C(=O)[O-].[Cu+2]` [Compound 17, D-His:Cu:D-His], the “EVT activity (in words)” value in series [2] is “inactive”. The “Endothelial cell proliferation activity (in words)” value in series [1] was “inactive”. `C[C@H](N)C(=O)O.N[C@@H](CCC(=O)[O-])C(=O)[O-].[Cu+2]` [Compound 20, L-Ala:Cu:L-Glu]: in series [1], the EC50 came to 0.28 mM. Same read-out and setting: to `C[C@@H](O)[C@H](N)C(=O)[O-].N[C@@H](CC(=O)O)C(=O)[O-].[Cu+2]` [Compound 25, L-Asp:Cu:L-Thr] belongs 0.29 mM. As to `O=C([O-])[C@@H]1CCCN1.O=C([O-])[C@@H]1CCCN1.[Cu+2]` [Compound 28, L-Pro:Cu:L-Pro], in series [1], the “Endothelial cell proliferation activity (in words)” value was “active complex” and the EC50 worked out at 0.28 mM. For the same compound, the “Affinity of the AA with Cooper” value in series [3] is 17.6. As for `N[C@@H](CC(=O)O)C(=O)O` [Free Asp, aspartic acid, reference compound], the Tubulogenesis in the series on Endothelial cells came to 0. The compound `N[C@@H](Cc1c[nH]cn1)C(=O)O` [Free His, histidine, reference compound] registered a Tubulogenesis in the series on Endothelial cells of 0. Same read-out and setting: to `C[C@@H](O)[C@H](N)C(=O)O` [Free Thr, threonine, reference compound] belongs 0.

Take `[Cl-].[Cl-].[Zn+2]` [Zn++, reference compound]: the EC50 in series [1] stood at 0.19 mM. In the case of (Creatine)2-Cu [Compound 34], in series [1], the “Endothelial cell proliferation activity (in words)” value is “excellent activity” and the EC50 was 0.28 mM.

On to D-Asp:Cu:D-Asp [Compound 14], for which, in series [1], the “Endothelial cell proliferation activity (in words)” value was “active” and the EC50 came out at 0.37 mM. Taken in the same sequence, the figures for D-Glu:Cu:D-GIu [Compound 15] were “active” and 0.35 mM. As for Gly:Cu:L-Asp [Compound 22], the EC50 in series [1] came to 0.41 mM. For Gly:Cu:L-Glu [Compound 24], the EC50 in series [1] is 0.33 mM.

On to Gly:Cu:L-Thr [Compound 23], for which the EC50 in series [1] was found to be 0.48 mM.

For the compound L-AIa:Cu:L-Asp [Compound 21], the EC50 in series [1] amounted to 0.32 mM.

On to L-Ala:Cu:Gly [Compound 18], for which, in series [1], the EC50 came out at 0.29 mM. On the same count and under the same terms, with L-Ala:Cu:L-Thr [Compound 19] the figure was 0.36 mM; with L-Asp-Co-L-Asp [Compound 30], 0.27 mM.

With L-Asp-Zn-L-Asp [Compound 32], the EC50 in series [1] came to 0.18 mM. On the same count and under the same terms, with L-Asp:Cu:L-Glu [Compound 26] the figure was 0.25 mM. Regarding L-Glu:Cu:L-Glu [Compound 7], the “EVT (% of inhibition)” value in series [2] is on record as “++ (++ more than 50% of inhibition)”. In addition, the EC50 in series [1] is 0.35 mM. Further, the entries for the “Matrigel in vivo % inhibition” value in series [4] (1.4 mg/Kg equivalent copper) and in series [4] (7.0 mg/Kg equivalent copper) were 42.6% and 71.2%, respectively.

Regarding L-Glu:Cu:L-Thr [Compound 27], the EC50 in series [1] amounted to 0.4 mM.
